Results taken from patent publication US20090172826A1, “Model System for TCR (ZETA) Chain Downregulation” (priority 2003, published 2009).

B1: OVA: chicken ovalbumin adsorbed to Al(OH)3 (Alum), then in PBS; elicits a TH2 response (protein, UniProt P01012 2-386, looked up)
Ovalbumin: GSIGAASMEFCFDVFKELKVHHANENIFYCPIAIMSALAMVYLGAKDSTRTQINKVVRFDKLPGFGDSIEAQCGTSVNVHSSLRDILNQITKPNDVYSFSLASRLYAEERYPILPEYLQCVKELYRGGLEPINFQTAADQARELINSWVESQTNGIIRNVLQPSSVDSQTAMVLVNAIVFKGLWEKAFKDEDTQAMPFRVTEQESKPVQMMYQIGLFRVASMASEKMKILELPFASGTMSMLVLLPDEVSGLEQLESIINFEKLTEWTSSNVMEERKIKVYLPRMKMEEKYNLTSVLMAMGITDVFSSSANLSGISSAESLKISQAVHAAHAEINEAGREVVGSAEAGVDAASVSEEFRADHPFLFCIKHIATNAVLFFGRCVSP
modifications: adsorbed to alum
notes: chicken ovalbumin adsorbed to Al(OH)3 (Alum), then in PBS; elicits a TH2 response

Key:
[1] = tested on: splenocytes isolated from P. gingivalis-treated mice; type: cell-based, mouse; conditions: NH4Cl 20 mM 20 h or bafilomycin A1 5 h at 37° C.
[2] = tested on: TCR ζ chain; experiment: In vitro incubation of isolated T cells and non-T cells with IFN-γ or anti-IFN-γ, ζ chain FACS; type: cell-based, mouse; conditions: IFN-γ 50 U/ml, 24 h, with or without control non-T cells
Protocol: T cells alone or mixed with the indicated non-T cell populations were incubated in vitro for 24 h in the presence or absence of IFN-γ (50 U/ml). Cells were stained for cell surface Thy 1.2 and for total ζ chain expression, as described in FIG. 1A-F, and ζ chain expression is shown.
To examine whether IFN-γ directly or indirectly affects all T cell populations in the spleen, T cells from control mice were exposed to IFN-γ in the presence or absence of control non-T cell populations in vitro.

[3] = tested on: splenic T cells; experiment: CFSE division of splenic T cells from treated mice after ex vivo activation; type: in vivo, mouse; conditions: BALB/c mice
[4] = tested on: TCR ζ chain; experiment: TCR ζ chain expression in T cells of antigen-treated mice (immunoblot, FACS, confocal); type: in vivo, mouse; conditions: full repeated-injection regimen, wild-type mice, versus control mice
[5] = tested on: splenic T cells; experiment: BrdU incorporation in Thy1.2+ splenic T cells from treated mice after ex vivo activation; parameters: species or system mouse; conditions: for percentage of BrdU+ T cells of total T cells: BALB/c mice
[6] = tested on: IL-10; experiment: IL-10 in chamber exudates by ELISA; type: in vivo, mouse; conditions: 24 h after the third injection; P. gingivalis- versus OVA-treated mice
Protocol: (§1) The results are presented as the mean value of the individual mice in each treatment group. (n.d.) not detectable values of IFN-γ in the OVA-treated mice.
(§2) Serum samples were collected at day +9 of the experiment and analyzed by ELISA for the levels of P.g.- or OVA-specific IgG1 and IgG2a antibodies as previously described [Houri-Haddad et al. (2000) id ibid.]. IFN-γ and IL-10 concentrations in the chamber exudates were determined at 4 and 24 h, respectively after the third P.g. injection by two-site ELISA [Frolov, I. et al. (1998) Immunology 93, 323-8].

[7] = tested on: IFN-γ; experiment: IFN-γ in chamber exudates by ELISA; type: in vivo, mouse; conditions: 4 h after the third injection
Protocol: as §1, §2

[8] = tested on: splenocytes; experiment: Mitogen-induced splenocyte proliferation, 3H-thymidine uptake; type: in vivo, mouse; conditions: percent of response in control mice, FIG. 6c
Protocol: For mitogen-induced cell proliferation [Leshem, B. et al. (1999) J Immunol Methods 223, 249-54], splenocytes (2×10^6 cells/ml) were cultured in the presence of anti-CD3ε (145-2C11), 2.5 μg/ml concanavalin A (Con A, Biomakor, Israel), 2 ng/ml phorbol 12-myristatel3-acetate (PMA, Sigma) combined with 0.2 μM calcium ionophore (Sigma), or in medium alone. Following 48 h of incubation at 37° C., 1 μCi of [^3H]-thymidine was added to each well. Cells were harvested 8 h later using a Tomtec (USA) cell harvester and counted in a MicroBeta scintillation counter (Wallac, Finland).

[9] = Specific serum IgG1 and IgG2a antibodies by ELISA; type: in vivo, mouse; conditions: serum at day +9
From the text: FIG. 6A: To determine the type of response, mice were bled at day +9 of the experiment and the titer and isotype of the specific antibodies was established by ELISA. Endpoint titers are expressed as the reciprocal values of the last dilution with an OD of 0.1 at 405 nm above maximal absorbance values of samples collected from non-immunized mice.
as §2

[10] = anti-CD3 and anti-CD28, 60 hours
[11] = activation with PMA and ionophore
[12] = activation with anti-CD3 and anti-CD28

Molecule | ζ protein expression after incubation with lysosome inhibitor [1] | percentage of CFSE-labeled splenic T cells which divided 1-5 times ([3]; PMA and ionophore, 60 hours) | percentage of CFSE-labeled splenic T cells which divided 1-5 times [3, 10] | ζ chain expression in splenocytes / splenic T cells [4] | percentage of BrdU+ T cells of total T cells ([5]; activation with ConA) | percentage of BrdU+ T cells of total T cells [5, 11] | percentage of BrdU+ T cells of total T cells [5, 12] | other results
CO/C1=C\C(C)=C\[C@@H](C)[C@@H](O)[C@@H](C)C/C(C)=C/C=C/[C@H](OC)[C@@H]([C@@H](C)[C@@H](O)[C@H](C)[C@@]2(O)C[C@@H](O)[C@H](C)[C@@H](C(C)C)O2)OC1=O [bafilomycin A] | largely restored ζ protein expression |  |  |  |  |  |  | 
IFN-γ |  |  |  |  |  |  |  | ζ chain expression in control T cells exposed in vitro [2]: did not affect ζ chain expression
5′-TGACTGTGAACGTTCGAGATGA-3′ [CpG-ODNs] |  | 57% | 6% | significant ζ chain down-regulation | 39% | 80% | 9% | T cell proliferation by BrdU incorporation ([5]; TCR-mediated stimuli (anti-CD3, Con A), compared to controls): significantly lower response
Cl.N [NH4Cl] | largely restored ζ protein expression |  |  |  |  |  |  | 
5′-TGACTGTGAAGGTTGGAGATGA-3′ (listed as DNA, chemistry not given here) [mutated CpG-ODNs, ID; NO.2] |  | 80% | 84% |  | 83% | 57% | 71% | 
B1 |  |  |  | did not induce profound ζ downregulation |  |  |  | IL-10 concentration in chamber exudates [6]: no great difference; IFN-γ concentration in chamber exudates [7]: practically undetectable; function (proliferative response) of T cells in the spleen [8]: normal function; specific serum antibodies, IgG1 and IgG2a isotype [9]: of the IgG1 isotype and not of the IgG2a isotype
